{
  "source": "ChEMBL document CHEMBL4673209",
  "about": "“Discovery of a novel potent GPR40 full agonist” (Bioorg Med Chem Lett, 2018)",
  "key": {"[1]": {"assay": "Cmax in cynomolgus monkey", "assay_type": "ADME, Macaca fascicularis", "settings": "in vivo"}, "Cytochrome P450 3A4": {"biological_target": "Cytochrome P450 3A4 (Homo sapiens, UniProt P08684)", "sequence (P08684 whole entry)": "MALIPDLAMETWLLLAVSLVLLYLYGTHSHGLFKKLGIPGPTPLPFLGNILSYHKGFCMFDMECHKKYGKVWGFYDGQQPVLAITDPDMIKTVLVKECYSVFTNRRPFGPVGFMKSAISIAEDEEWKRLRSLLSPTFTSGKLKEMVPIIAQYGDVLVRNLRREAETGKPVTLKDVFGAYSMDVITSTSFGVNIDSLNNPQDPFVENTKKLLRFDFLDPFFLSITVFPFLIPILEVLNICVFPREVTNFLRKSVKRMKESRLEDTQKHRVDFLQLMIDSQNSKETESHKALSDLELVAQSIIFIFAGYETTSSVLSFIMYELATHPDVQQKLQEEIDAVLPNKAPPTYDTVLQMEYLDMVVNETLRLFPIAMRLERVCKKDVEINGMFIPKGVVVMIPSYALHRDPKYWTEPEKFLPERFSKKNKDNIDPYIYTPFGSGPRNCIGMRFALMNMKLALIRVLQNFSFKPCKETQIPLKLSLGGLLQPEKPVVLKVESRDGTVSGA", "assay": "Inhibition of CYP3A4 (unknown origin) using testosterone as substrate", "assay_type": "ADME"}, "[2]": {"biological_target": "T1, Free fatty acid receptor 1 (Homo sapiens, UniProt O14842)", "T1 sequence (O14842 whole entry)": "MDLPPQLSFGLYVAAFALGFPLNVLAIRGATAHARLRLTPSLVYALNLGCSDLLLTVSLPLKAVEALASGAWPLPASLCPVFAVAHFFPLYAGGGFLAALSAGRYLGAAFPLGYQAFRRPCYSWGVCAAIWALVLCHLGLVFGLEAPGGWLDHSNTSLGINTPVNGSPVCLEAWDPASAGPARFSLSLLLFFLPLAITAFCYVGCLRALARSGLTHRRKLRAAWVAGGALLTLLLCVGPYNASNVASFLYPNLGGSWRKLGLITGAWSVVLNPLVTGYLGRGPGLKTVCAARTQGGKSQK", "assay": "Agonist activity at human GPR40 transfected in HEK293 cells assessed as increase in intracellular calcium level incubated for 1 hr by Fluo-8 dye based fluorescence analysis", "assay_type": "functional, cell-based", "settings": "hek293"}, "Mus musculus [3]": {"species": "Mus musculus", "assay": "Anti-glycemic activity in GPR40 knockout mouse assessed as reduction in blood glucose excursion measured for 120 mins by IPGTT", "assay_type": "functional, organism-based"}, "[4]": {"biological_target": "Free fatty acid receptor 1 (Rattus norvegicus) (UniProt Q8K3T4)", "sequence (Q8K3T4 whole entry)": "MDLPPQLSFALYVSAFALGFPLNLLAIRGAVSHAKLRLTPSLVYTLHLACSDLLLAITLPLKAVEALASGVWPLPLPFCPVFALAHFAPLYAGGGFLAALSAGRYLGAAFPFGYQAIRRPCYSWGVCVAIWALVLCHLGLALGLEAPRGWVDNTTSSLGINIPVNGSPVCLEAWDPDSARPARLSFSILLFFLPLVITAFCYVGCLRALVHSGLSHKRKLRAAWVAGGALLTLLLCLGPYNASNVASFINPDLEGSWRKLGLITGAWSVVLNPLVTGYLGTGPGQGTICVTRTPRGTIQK", "assay": "Agonist activity at rat GPR40 receptor expressed in CHOK1 cells assessed as induction of IP1 accumulation at 10 uM relative to AM1638", "assay_type": "functional, cell-based", "settings": "CHO-K1, filed as agonist"}, "[5]": {"assay": "Apparent permeability from basolateral to apical side in dog MDCK-MDR1 cells", "assay_type": "ADME, cell-based, Canis lupus familiaris"}, "[6]": {"biological_target": "T2, Peroxisome proliferator-activated receptor alpha (Homo sapiens) (UniProt Q07869)", "T2 sequence (whole entry)": "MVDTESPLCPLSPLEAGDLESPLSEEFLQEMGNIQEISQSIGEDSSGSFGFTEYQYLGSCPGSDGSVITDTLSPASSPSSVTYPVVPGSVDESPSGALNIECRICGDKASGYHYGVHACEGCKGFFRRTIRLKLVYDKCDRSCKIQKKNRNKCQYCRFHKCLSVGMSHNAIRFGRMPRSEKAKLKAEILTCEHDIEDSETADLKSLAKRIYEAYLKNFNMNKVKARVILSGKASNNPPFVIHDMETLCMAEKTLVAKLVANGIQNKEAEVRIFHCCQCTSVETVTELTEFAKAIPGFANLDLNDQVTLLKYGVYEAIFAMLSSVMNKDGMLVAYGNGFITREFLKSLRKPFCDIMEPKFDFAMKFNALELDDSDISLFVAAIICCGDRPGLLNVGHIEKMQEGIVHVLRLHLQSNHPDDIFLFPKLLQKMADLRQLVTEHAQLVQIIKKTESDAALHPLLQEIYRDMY", "assay": "Agonist activity at PPARalpha (unknown origin)"}, "[7]": {"assay": "Half life in iv dosed rat", "assay_type": "ADME, organism-based", "settings": "in vivo"}, "[8]": {"biological_target": "Free fatty acid receptor 1 (Rattus norvegicus) (UniProt Q8K3T4)", "assay": "Agonist activity at GPR40 receptor in rat INS1(832/13) cells assessed as induction of IP1 accumulation at 10 uM relative to TAK875", "assay_type": "functional, cell-based", "settings": "INS-1 832/13, filed as agonist"}, "[9]": {"biological_target": "Free fatty acid receptor 1 (Rattus norvegicus) (UniProt Q8K3T4)", "assay": "Agonist activity at rat GPR40 receptor expressed in CHOK1 cells assessed as induction of IP1 accumulation at 10 uM relative to TAK875", "assay_type": "functional, cell-based", "settings": "CHO-K1, filed as agonist"}, "[10]": {"assay": "Clearance in rat", "assay_type": "ADME", "settings": "in vivo"}, "[11]": {"assay": "Intrinsic clearance in rat assessed as half-life at 1 uM", "assay_type": "ADME"}, "[12]": {"assay": "Apparent permeability from apical to basolateral side in dog MDCK-MDR1 cells", "assay_type": "ADME, cell-based, Canis lupus familiaris"}, "[13]": {"biological_target": "T3, Free fatty acid receptor 1 (Rattus norvegicus, UniProt Q8K3T4)", "T3 sequence (Q8K3T4 whole entry)": "as the sequence (Q8K3T4 whole entry) above", "assay": "Agonist activity at rat GPR40 transfected in HEK293 cells assessed as increase in intracellular calcium level incubated for 1 hr by Fluo-8 dye based fluorescence analysis", "assay_type": "functional, cell-based"}, "[14]": {"biological_target": "T4, Peroxisome proliferator-activated receptor gamma (Homo sapiens) (UniProt P37231)", "T4 sequence (whole entry)": "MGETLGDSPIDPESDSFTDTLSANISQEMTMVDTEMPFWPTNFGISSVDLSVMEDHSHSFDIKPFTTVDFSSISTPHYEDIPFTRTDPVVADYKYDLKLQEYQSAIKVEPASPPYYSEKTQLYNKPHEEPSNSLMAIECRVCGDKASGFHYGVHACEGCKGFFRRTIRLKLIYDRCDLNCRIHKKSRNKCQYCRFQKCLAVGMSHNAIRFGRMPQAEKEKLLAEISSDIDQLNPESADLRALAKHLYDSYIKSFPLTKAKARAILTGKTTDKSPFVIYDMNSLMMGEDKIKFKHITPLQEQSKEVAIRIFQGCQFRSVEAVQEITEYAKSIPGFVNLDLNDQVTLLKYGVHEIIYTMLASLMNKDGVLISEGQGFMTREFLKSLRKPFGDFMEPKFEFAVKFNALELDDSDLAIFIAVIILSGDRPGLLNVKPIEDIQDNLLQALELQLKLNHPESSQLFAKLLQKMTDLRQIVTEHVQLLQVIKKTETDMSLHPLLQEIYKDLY", "assay": "Agonist activity at PPARgamma (unknown origin)", "assay_type": "cell-based", "settings": "HEK293"}, "[15]": {"assay": "Drug metabolism in human assessed as (3S)-3-cyclopropyl-3-(3-((5-(5-fluoro-2-hydroxypyridin-4-yl)-6-isobutylpyrazin-2-yl)methoxy)phenyl)propanoic acid metabolite formation by MetID studies", "assay_type": "ADME"}, "Rattus norvegicus [16]": {"tested_on": "Rattus norvegicus", "assay": "Anti-glycemic activity in fasted Sprague-Dawley ZDF rat assessed as reduction in post-prandial hyperglycemia by measuring AUC(0 to 2 hrs) for blood glucose at 10 mg/kg administered daily for 8 days and measured on day 8 by OGTT", "assay_type": "functional", "settings": "time 8 day"}, "[17]": {"assay": "Intrinsic clearance in dog assessed as half-life at 1 uM", "assay_type": "ADME, Canis lupus familiaris"}, "[18]": {"assay": "Protein binding in human plasma", "assay_type": "ADME, cell-free", "settings": "read-out: PPB (converted)"}, "[19]": {"biological_target": "T1, Free fatty acid receptor 1", "assay": "Agonist activity at GPR40 in human islets assessed as induction of glucose-stimulated insulin secretion at 0.3 to 10 uM", "assay_type": "tissue-based", "settings": "Pancreatic islet, filed as agonist, dose 0.3-10 µM"}, "[20]": {"assay": "Drug metabolism in rat assessed as (3S)-3-cyclopropyl-3-(3-((5-(5-fluoro-2-hydroxypyridin-4-yl)-6-isobutylpyrazin-2-yl)methoxy)phenyl)propanoic acid metabolite formation by MetID studies", "assay_type": "ADME"}, "Mus musculus [21]": {"tested_on": "Mus musculus", "assay": "Induction of GLP-1 secretion in GPR40 knock-out mouse at 100 mg/kg", "assay_type": "functional, organism-based"}, "[22]": {"biological_target": "Free fatty acid receptor 1 (Mus musculus, UniProt Q76JU9)", "sequence (Q76JU9 whole entry)": "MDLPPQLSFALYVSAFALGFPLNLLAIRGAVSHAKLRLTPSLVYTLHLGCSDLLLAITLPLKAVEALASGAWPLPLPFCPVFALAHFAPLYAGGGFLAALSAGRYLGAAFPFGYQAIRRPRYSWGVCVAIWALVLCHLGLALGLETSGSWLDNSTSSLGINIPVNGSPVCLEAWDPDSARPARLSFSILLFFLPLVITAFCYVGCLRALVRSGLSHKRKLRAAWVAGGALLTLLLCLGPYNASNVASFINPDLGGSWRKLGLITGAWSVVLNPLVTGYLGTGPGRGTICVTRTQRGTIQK", "assay": "Agonist activity at mouse GPR40 assessed as increase in intracellular calcium level", "assay_type": "functional, cell-based"}, "[23]": {"assay": "Apparent permeability across apical to basolateral side in human Caco2 cells", "assay_type": "ADME, cell-based", "settings": "Caco-2"}, "[24]": {"assay": "Oral bioavailability in dog", "assay_type": "ADME, organism-based, Canis lupus familiaris", "settings": "in vivo"}, "[25]": {"assay": "Clearance in cynomolgus monkey", "assay_type": "ADME, Macaca fascicularis", "settings": "in vivo"}, "[26]": {"assay": "Apparent permeability across basolateral to apical side in human Caco2 cells", "assay_type": "ADME, cell-based", "settings": "Caco-2"}, "[27]": {"biological_target": "T3, Free fatty acid receptor 1", "assay": "Agonist activity at rat GPR40 receptor expressed in CHOK1 cells assessed as induction of IP1 accumulation", "assay_type": "functional, cell-based, CHO-K1"}, "Rattus norvegicus [28]": {"tested_on": "Rattus norvegicus", "assay": "Anti-glycemic activity in fasted Sprague-Dawley ZDF rat assessed as reduction in post-prandial hyperglycemia by measuring AUC(0 to 2 hrs) for blood glucose at 3 mg/kg administered for 1 day and measured on day 1 by OGTT", "assay_type": "functional"}},
  "note": "Activity calls are given as the source filed them. No cut-off for these calls is given here.",
  "data": [
    {"smiles": "COc1cc(-c2ncc(COc3cccc([C@@H](CC(=O)O)C4CC4)c3)nc2CC(C)C)c(F)cn1", "values": [
      {"measurement": "Cmax", "setting": "[1]", "result": 8570, "unit": "ng/mL"},
      {"measurement": "IC50", "setting": "Cytochrome P450 3A4", "result": "> 10000", "unit": "nM"},
      {"measurement": "EC50", "setting": "[2]", "result": 2, "unit": "nM"},
      {"measurement": "Activity", "setting": "Mus musculus [3]", "result": "inactive"},
      {"measurement": "Activity", "setting": "[4]", "result": 95, "unit": "%"},
      {"measurement": "Papp B→A", "setting": "[5]", "result": 82, "unit": "×10⁻⁶ cm/s"},
      {"measurement": "Activity", "setting": "[6]", "result": "inactive"},
      {"measurement": "half-life", "setting": "[7]", "result": 2.71, "unit": "h"},
      {"measurement": "Activity", "setting": "[8]", "result": 208, "unit": "%"},
      {"measurement": "Activity", "setting": "[9]", "result": 167, "unit": "%"},
      {"measurement": "clearance", "setting": "[10]", "result": 2.37, "unit": "mL/min/kg"},
      {"measurement": "half-life at 1 µM", "setting": "[11]", "result": 0.8, "unit": "h"},
      {"measurement": "Papp A→B", "setting": "[12]", "result": 50, "unit": "×10⁻⁶ cm/s"},
      {"measurement": "EC50", "setting": "[13]", "result": 17, "unit": "nM"},
      {"measurement": "Activity", "setting": "[14]", "result": "inactive"},
      {"measurement": "Drug metabolism", "setting": "[15]", "result": "Metabolite_Detected"},
      {"measurement": "Activity", "setting": "Rattus norvegicus [16]", "result": 51024, "unit": "ng/mL.hr"},
      {"measurement": "half-life at 1 µM", "setting": "[17]", "result": 1.38, "unit": "h"},
      {"measurement": "fraction unbound", "setting": "[18]", "result": 0.0012},
      {"measurement": "Activity", "setting": "[19]", "result": "Active"},
      {"measurement": "Drug metabolism", "setting": "[20]", "result": "Metabolite_Detected"},
      {"measurement": "Activity", "setting": "Mus musculus [21]", "result": "inactive"},
      {"measurement": "EC50", "setting": "[22]", "result": 38, "unit": "nM"},
      {"measurement": "Papp A→B", "setting": "[23]", "result": 40, "unit": "×10⁻⁶ cm/s"},
      {"measurement": "bioavailability", "setting": "[24]", "result": 33.6, "unit": "%"},
      {"measurement": "clearance", "setting": "[25]", "result": 2.19, "unit": "mL/min/kg"},
      {"measurement": "Papp B→A", "setting": "[26]", "result": 40, "unit": "×10⁻⁶ cm/s"},
      {"measurement": "EC50", "setting": "[27]", "result": 547, "unit": "nM"},
      {"measurement": "Activity", "setting": "Rattus norvegicus [28]", "result": 15896, "unit": "ng/mL.hr"}
    ]}
  ]
}
